{"source": "paper PMC12990037", "about": "“Discovery of Two Structurally Distinct Classes of Inhibitors Targeting the Nuclease MUS81 and Enhancing Efficacy of Chemotherapy in Cancer Cells” (Journal of Medicinal Chemistry, 2026)", "tested_on": "CAL51 WT cells", "assay": "Long-term cell survival assay (retreatment twice a week)", "format": "cell-based", "conditions": "1–3 μM, treated twice a week for almost 3 weeks", "method": "To evaluate the long-term effects of the inhibitors on the cellular viability, we treated cells twice a week for almost 3 weeks with low doses of MU262 and MU876.\nCAL51 WT cells were treated with DMSO, MU262 = 18, MU876 = 32, nontargeting siRNA, or siRNA targeting MUS81. Cells were trypsinized, counted, and replated twice a week and retreated with inhibitors or siRNA with every passage. The cell number was plotted at each time point. Data were plotted in Graphpad Prism (GraphPad Software) and a 2-way ANOVA test was used to assess significance.", "data": [{"smiles": "CCc1nn2c(O)c(-c3nc4ccccc4[nH]3)nnc2c1-c1ccc(F)cc1", "note": "[Compound 18, 3-(1H-Benzo[d]imidazole-2-yl)-7-ethyl-8-(4-fluorophenyl)pyrazolo[5,1-c][1,2,4]triazin-4-ol]", "values": [{"measurement": "long-term viability", "value": "significant reduction in viability"}]}]}
